Values of other authors, collected in article PMC6318333, “A chemical biology toolbox to study protein methyltransferases and epigenetic signaling” (Nature Communications, 2019).

Biological target: T1, SMYD3 (Homo sapiens, UniProt Q9H7B4)
T1 sequence (Q9H7B4 1-428): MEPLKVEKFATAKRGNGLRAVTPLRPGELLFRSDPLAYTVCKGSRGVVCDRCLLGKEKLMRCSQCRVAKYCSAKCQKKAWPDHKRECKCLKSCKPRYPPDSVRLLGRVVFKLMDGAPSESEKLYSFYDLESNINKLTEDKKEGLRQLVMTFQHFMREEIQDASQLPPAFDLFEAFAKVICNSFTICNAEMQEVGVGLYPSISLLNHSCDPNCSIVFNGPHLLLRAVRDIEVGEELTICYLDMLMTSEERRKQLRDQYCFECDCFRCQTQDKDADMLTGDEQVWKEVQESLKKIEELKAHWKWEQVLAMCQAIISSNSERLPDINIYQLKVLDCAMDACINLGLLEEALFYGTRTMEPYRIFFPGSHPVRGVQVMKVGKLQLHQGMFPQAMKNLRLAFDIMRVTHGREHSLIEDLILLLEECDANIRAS
Assay: biochemical methyltransferase assay with recombinant protein
Conditions: read-out: In vitro IC50 or Kd

IC50: 0.088 µM
Substance: BAY-6035
